Assay results published in patent publication US6034064A, “Peptides and therapeutic agent for autoimmune diseases containing the same” (Hoechst Pharmaceuticals & Chemicals K.K., priority 1995, dated 2000).
No end group written: not given here.

Assays:
[1] = system: anti-KLH antibody production; assay: Suppressive effect on anti-KLH antibody production in mice (ELISA of serum IgG); assay type: in vivo, mouse (Balb/c); settings: Example 7
Experimental: Day 5 and day 3 prior to the antigen administration, 100 μg of each Peptide (I) to (VI) of the present invention composed of 9 amino acid residues indicated by Sequence ID No. 1 in the Sequence Listing were dissolved in 200 μl of physiological saline. The resulting solution was subcutaneously administered to 9-week-old Balb/c mice. As a control, a non-administered group to which the same amount of physiological saline was administered was employed. In 200 μl of physiological saline, 25 μg of KLH were dissolved as an antigen and the resulting solution was subcutaneously administered. The blood was collected on day 21 after antigen administration and an antibody titer was measured by the method which is described below.
KLH was diluted to 10 μg/ml with a phosphate buffered physiological saline (PBS). Fifty μl portions of the resulting solution were poured into a 96-well microplate and the plate was allowed to stand at 4iC overnight. After the microplate was washed three times with 0.05% Tween®-20-containing PBS (T-PBS), 200 μl portions of 0.5% casein tris-buffered physiological saline (casein TBS) were poured into wells, respectively. […] The microplate was washed three times with T-PBS and 50 μl portions of the mouse serum diluted to 1/200 with casein TBS were poured into the wells, followed by reaction for one hour (primary reaction).
The resulting microplate was washed three times with T-PBS, to which 50 μl portions of an anti-mouse IgG-peroxidase-labeled antibody (TAGO Co.) diluted to 1/4000 with casein TBS were poured. The reaction was effected at room temperature for one hour (secondary reaction). After the completion of the secondary reaction, the plate was washed three times again. Fifty μl portions of a substrate liquid/chromogen (chromogen substrate: Behringwerke AG) were poured into wells, respectively, followed by reaction at room temperature for 30 minutes. After the completion of the reaction, 0.5N diluted sulfuric acid was added to terminate the reaction and an absorbance at 450 nm was measured by a calorimeter ("BEP-II ", product of Behringwerke AG/Germany) with the absorbance at 650 nm as a control.
In a similar manner to Example 3, suppressive effects of Peptides (I), (VII) to (XV) on anti-KLH antibody production in mice were studied.

[2] = system: anti-OVA antibody production; assay: Suppressive effect on anti-OVA antibody production in mice (ELISA of serum IgG); assay type: in vivo, mouse (Balb/c); design: Anti OVA Ig-G antibody titer: dose or concentration left out as unconfirmed; settings: for anti-OVA antibody production compared with the non-administered group and Peptide (I) administered group / anti-OVA antibody production compared with Peptide (I) administered group: Example 8
Experimental: Day 5 and day 3 prior to the antigen administration, Peptide (I) composed of 9 amino acid residues as indicated by Sequence ID No. 1 in the Sequence Listing of the present invention and a synthetic peptide 15 composed of 15 amino acid residues derived from clone 17.2 TcR, which peptide had been reported by Mohapatra et al. as described above, 100 g each, were dissolved in 200 of physiological saline and each solution thus obtained was subcutaneously administered to 9-week-old Balb/c mice. As a control, a non-administered group to which the same amount of physiological saline was administered was employed. In 200 l of physiological saline, 100 g of OVA (Sigma Chemical Co.) were dissolved, followed by subcutaneous administration. Blood was collected on day 21 after antigen administration and an antibody titer was measured by the method described below.
OVA was diluted to 10 µg/ml with phosphate buffered saline (PBS) and 50 l portions of the solution were poured in a 96-well microplate. The coating operation was conducted overnight at […]. The microplate was then washed three times with a 0.05% Tween®-20-containing PBS (T-PBS). 200 l portions of 0.5% casein-containing tris buffered physiological saline (casein TBS) were poured in each well and the microplate was allowed to stand at room temperature for one hour. The microplate was then washed three times with T-PBS. After the serum of the blood collected from the mice was diluted to 1/200 with 0.5% casein TBS, 50 l portions of the diluted serum were poured in each well and the plate was allowed to stand for one hour (primary reaction).
After the completion of the primary reaction, the microplate was washed three times with T-PBS. Fifty l portions of anti-mouse IgG-peroxidase-labeled antibody (TAGO Co.) diluted to 1/4000 with 0.5% casein TBS were poured in each well, followed by reaction at room temperature for one hour (secondary reaction). After the completion of the secondary reaction, the plate was washed three times again. Fifty l portions of a substrate liquid/chromogen (chromogen substrate: Behringwerke AG) were poured in each well, followed by reaction at room temperature for 30 minutes. After the completion of the reaction, 0.5N diluted sulfuric acid was added to terminate the reaction and an absorbance at 450 nm was measured by a calorimeter ("BEP-II", product of Behringwerke AG/Germany) with an absorbance at 650 nm as a control.
In a similar manner to Example 2, the suppressive effects of Peptides (I), (VII) to (XIV) on the anti-OVA antibody production in mice were measured.

EAE model mice = assay: Onset suppressive effect on EAE model mice; assay type: in vivo, mouse (SJL)
Experimental: As an antigen, guinea pig spinal chord homogenate was employed. The guinea pig spinal chord homogenate was diluted with PBS to be 6.6 mg/ml, followed by the addition of the equivalent amount of Freunds complete adjuvant. The resulting mixture was formed into an emulsion by an ultrasonic sonicator. The resulting emulsion was administered to two areas under the lateral skin in a total amount of 300 μl. Day 5 and day 3 prior to antigen administration, and 5 days a week for 4 weeks after antigen administration, the solution of Peptide (I) dissolved in 100 μl physiological saline was subcutaneously administered to a 14-week old SJL mouse. Incidentally, in order to increase an onset ratio, […] of pertussis toxin (PTX) were intravenously administered as an enhancer on the day of antigen administration and two days after antigen administration. Observation of the onset was performed from day 14 to day 28 after primary antigen administration. The onset was scored based on the following standard criteria [Pettinelli, C. B., Fritz, D. E., and McFarlin, D. E. J. Immunl., 129, No. 3, 1024-1028 (1982)]. In Table 3, values of average score+standard deviation (SD) in each administration group on day 22, day 25 and day 28 after primary antigen administration are shown.
Score 1: Slight paralysis of hind leg with tail weakness
Score 2: Moderate paralysis of hind leg with tail weakness
Score 3: Total paralysis of hind leg
Score 4: Slight paralysis of forward leg with total paralysis of hind leg
Score 5: Total paralysis of all leg
Score 6: Death from paralysis

AKLTFGKA [Peptide (XII), Ala-Lys-Leu-Thr-Phe-Gly-Lys-Ala]
anti-KLH antibody production compared with Peptide (I) administered group [1]: not suppressed

AKLAFGKG [Peptide (IX), Ala-Lys-Leu-Ala-Phe-Gly-Lys-Gly]
anti-OVA antibody production compared with the non-administered group and Peptide (I) administered group [2]: significantly suppressed | anti-KLH antibody production compared with the non-administered group and Peptide (I) administered group [1]: significantly suppressed

AKLTFGAG [Peptide (XI), Ala-Lys-Leu-Thr-Phe-Gly-Ala-Gly]
anti-OVA antibody production compared with the non-administered group and Peptide (I) administered group [2]: significantly suppressed | anti-KLH antibody production compared with the non-administered group and Peptide (I) administered group [1]: significantly suppressed

AKLTFAKG [Peptide (X), Ala-Lys-Leu-Thr-Phe-Ala-Lys-Gly]
anti-KLH antibody production compared with the non-administered group and Peptide (I) administered group [1]: significantly suppressed

AALTFGKG [Peptide (VIII), Ala-Ala-Leu-Thr-Phe-Gly-Lys-Gly]
anti-KLH antibody production compared with Peptide (I) administered group [1]: not suppressed

AKLTFGKG [Peptide (VII), Ala-Lys-Leu-Thr-Phe-Gly-Lys-Gly]
anti-OVA antibody production compared with the non-administered group and Peptide (I) administered group [2]: significantly suppressed | anti-KLH antibody production compared with the non-administered group and Peptide (I) administered group [1]: significantly suppressed

AKATFGKG [Peptide (XIII), Ala-Lys-Ala-Thr-Phe-Gly-Lys-Gly]
anti-OVA antibody production compared with Peptide (I) administered group [2]: not suppressed | anti-KLH antibody production compared with Peptide (I) administered group [1]: not suppressed

KLTFGKG [Peptide (XV), Lys-Leu-Thr-Phe-Gly-Lys-Gly]
anti-KLH antibody production compared with Peptide (I) administered group [1]: not suppressed

AKLTAGKG [Peptide (XIV), Ala-Lys-Leu-Thr-Ala-Gly-Lys-Gly]
anti-OVA antibody production compared with Peptide (I) administered group [2]: not suppressed | anti-KLH antibody production compared with Peptide (I) administered group [1]: not suppressed

AKLTFGKGT [Peptide (I), Ala-Lys-Leu-Thr-Phe-Gly-Lys-Gly-Thr]
Anti OVA Ig-G antibody titer ([2]; Example 2, Table 1, peptide s.c. day 5 and day 3 prior to OVA, blood day 21, 8 mice per group): 8.8 ± 10.8 unit | anti-OVA antibody production compared with the non-administered group ([2]; Example 2, 8 mice per group): significantly suppressed | EAE average score ± SD (EAE model mice; 1 μg/body s.c., Day 22): 1.6 ± 1.8 score | EAE average score ± SD (EAE model mice; 1 μg/body s.c., Day 25): 0.9 ± 1.1 score | EAE average score ± SD (EAE model mice; 1 μg/body s.c., Day 28): 1.8 ± 1.9 score | EAE average score ± SD (EAE model mice; 5 μg/body s.c., Day 22): 0.4 ± 0.7 score | EAE average score ± SD (EAE model mice; 5 μg/body s.c., Day 25): 1.0 ± 1.1 score | EAE average score ± SD (EAE model mice; 5 μg/body s.c., Day 28): 0.7 ± 0.8 score | onset of EAE compared with physiological saline group (EAE model mice; 5 μg/body, day 25 and day 28, significant difference of 5%): suppressed | EAE average score ± SD (EAE model mice; 25 μg/body s.c., Day 22 after primary antigen administration): 0.3 ± 0.4 score | EAE average score ± SD (EAE model mice; 25 μg/body s.c., Day 25): 0.1 ± 0.3 score | EAE average score ± SD (EAE model mice; 25 μg/body s.c., Day 28): 0.0 ± 0.0 score | onset of EAE compared with physiological saline group (EAE model mice; 25 μg/body, from day 22 significant difference of 5%, from day 25 of 1%): suppressed | onset of EAE (EAE model mice; administration of Peptide (I), overall): suppressed
